Measurements reported in PubChem BioAssay (NCI).
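Values below derive from 48-hour exposures of cells grown in 96-well plates, with endpoints linearly interpolated between the two concentrations bracketing the appropriate inhibition level. GI50 = concentration required for 50% inhibition of growth. TGI denotes the concentration required for complete inhibition of growth.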

Tests used:
Test in all cases: inhibition of tumour cell growth, NCI panel, 48 h
786-0 renal = test system: 786-0 renal
A549 NSCLC = test system: A549 NSCLC
ACHN renal = test system: ACHN renal
BT-549 breast = test system: BT-549 breast
CAKI-1 renal = test system: CAKI-1 renal
CCRF-CEM leukemia = test system: CCRF-CEM leukemia
COLO 205 colon = test system: COLO 205 colon
DU-145 prostate = test system: DU-145 prostate
EKVX NSCLC = test system: EKVX NSCLC
HCC-2998 colon = test system: HCC-2998 colon
HCT-116 colon = test system: HCT-116 colon
HCT-15 colon = test system: HCT-15 colon
HL-60(TB) leukemia = test system: HL-60(TB) leukemia
HOP-62 NSCLC = test system: HOP-62 NSCLC
HOP-92 NSCLC = test system: HOP-92 NSCLC
HT29 colon = test system: HT29 colon
K-562 leukemia = test system: K-562 leukemia
KM12 colon = test system: KM12 colon
LOX IMVI melanoma = test system: LOX IMVI melanoma
M14 melanoma = test system: M14 melanoma
MDA-MB-231 breast = test system: MDA-MB-231 breast
MDA-MB-435 = test system: MDA-MB-435
MOLT-4 leukemia = test system: MOLT-4 leukemia
NCI-H226 lung = test system: NCI-H226 lung
NCI-H23 lung = test system: NCI-H23 lung
NCI-H460 lung = test system: NCI-H460 lung
NCI-H522 lung = test system: NCI-H522 lung
NCI/ADR-RES ovarian = test system: NCI/ADR-RES ovarian
OVCAR-3 ovarian = test system: OVCAR-3 ovarian
OVCAR-4 ovarian = test system: OVCAR-4 ovarian
OVCAR-5 ovarian = test system: OVCAR-5 ovarian
OVCAR-8 ovarian = test system: OVCAR-8 ovarian
PC-3 prostate = test system: PC-3 prostate
RXF 393 renal = test system: RXF 393 renal
SF-268 CNS = test system: SF-268 CNS
SF-295 CNS = test system: SF-295 CNS
SK-MEL-2 melanoma = test system: SK-MEL-2 melanoma
SK-MEL-28 melanoma = test system: SK-MEL-28 melanoma
SK-MEL-5 melanoma = test system: SK-MEL-5 melanoma
SK-OV-3 ovarian = test system: SK-OV-3 ovarian
SN12C renal = test system: SN12C renal
SNB-19 CNS = test system: SNB-19 CNS
SR leukemia = test system: SR leukemia
SW-620 colon = test system: SW-620 colon
T-47D breast = test system: T-47D breast
TK-10 renal = test system: TK-10 renal
U251 CNS = test system: U251 CNS
UACC-257 melanoma = test system: UACC-257 melanoma
UACC-62 melanoma = test system: UACC-62 melanoma
UO-31 renal = test system: UO-31 renal
A498 renal = test system: A498 renal
MALME-3M melanoma = test system: MALME-3M melanoma

CCC(C)CN=C(N)c1ccc(N2CCN(c3ccc(C(N)=NCC(C)CC)cc3)CC2)cc1 (centres undefined)
GI50 (786-0 renal): 7.33 µM
TGI (786-0 renal): 87.3 µM
GI50 (A549 NSCLC): 10.5 µM
TGI (A549 NSCLC): > 100 µM
GI50 (ACHN renal): 48 µM
TGI (ACHN renal): > 100 µM
GI50 (BT-549 breast): 2.91 µM
TGI (BT-549 breast): 12.5 µM
GI50 (CAKI-1 renal): 30 µM
TGI (CAKI-1 renal): 92.3 µM
GI50 (CCRF-CEM leukemia): 6.09 µM
TGI (CCRF-CEM leukemia): 40.7 µM
GI50 (COLO 205 colon): 23.4 µM
TGI (COLO 205 colon): > 100 µM
GI50 (DU-145 prostate): 5.72 µM
TGI (DU-145 prostate): > 100 µM
GI50 (EKVX NSCLC): 0.955 µM
TGI (EKVX NSCLC): 23.3 µM
GI50 (HCC-2998 colon): 11.5 µM
TGI (HCC-2998 colon): > 100 µM
GI50 (HCT-116 colon): 8.51 µM
TGI (HCT-116 colon): 60 µM
GI50 (HCT-15 colon): 26.5 µM
TGI (HCT-15 colon): > 100 µM
GI50 (HL-60(TB) leukemia): 10.9 µM
TGI (HL-60(TB) leukemia): 39.9 µM
GI50 (HOP-62 NSCLC): 4.51 µM
TGI (HOP-62 NSCLC): 24.2 µM
GI50 (HOP-92 NSCLC): 0.29 µM
TGI (HOP-92 NSCLC): 8.03 µM
GI50 (HT29 colon): 11 µM
TGI (HT29 colon): > 100 µM
GI50 (K-562 leukemia): 2.84 µM
TGI (K-562 leukemia): 14 µM
GI50 (KM12 colon): 7.25 µM
TGI (KM12 colon): 52 µM
GI50 (LOX IMVI melanoma): 12.1 µM
TGI (LOX IMVI melanoma): 41.8 µM
GI50 (M14 melanoma): 8.64 µM
TGI (M14 melanoma): 43.5 µM
GI50 (MDA-MB-231 breast): 6.19 µM
TGI (MDA-MB-231 breast): 37.3 µM
GI50 (MDA-MB-435): 5.48 µM
TGI (MDA-MB-435): 28.5 µM
GI50 (MOLT-4 leukemia): 14.2 µM
TGI (MOLT-4 leukemia): 38.4 µM
GI50 (NCI-H226 lung): 6.54 µM
TGI (NCI-H226 lung): 31.3 µM
GI50 (NCI-H23 lung): 5.2 µM
TGI (NCI-H23 lung): 36.3 µM
GI50 (NCI-H460 lung): 3.34 µM
TGI (NCI-H460 lung): 19.1 µM
GI50 (NCI-H522 lung): 6.49 µM
TGI (NCI-H522 lung): 27.2 µM
GI50 (NCI/ADR-RES ovarian): 85.6 µM
TGI (NCI/ADR-RES ovarian): > 100 µM
GI50 (OVCAR-3 ovarian): 3.45 µM
TGI (OVCAR-3 ovarian): 35.4 µM
GI50 (OVCAR-4 ovarian): 19.3 µM
TGI (OVCAR-4 ovarian): > 100 µM
GI50 (OVCAR-5 ovarian): 33 µM
TGI (OVCAR-5 ovarian): > 100 µM
GI50 (OVCAR-8 ovarian): 5.58 µM
TGI (OVCAR-8 ovarian): > 100 µM
GI50 (PC-3 prostate): 7.56 µM
TGI (PC-3 prostate): 69.3 µM
GI50 (RXF 393 renal): 15.9 µM
TGI (RXF 393 renal): 96.7 µM
GI50 (SF-268 CNS): 3.93 µM
TGI (SF-268 CNS): 17.4 µM
GI50 (SF-295 CNS): 2.9 µM
TGI (SF-295 CNS): 17.4 µM
GI50 (SK-MEL-2 melanoma): 8.67 µM
TGI (SK-MEL-2 melanoma): 45.3 µM
GI50 (SK-MEL-28 melanoma): 16.9 µM
TGI (SK-MEL-28 melanoma): 41.8 µM
GI50 (SK-MEL-5 melanoma): 1.71 µM
TGI (SK-MEL-5 melanoma): 12.3 µM
GI50 (SK-OV-3 ovarian): 23.1 µM
TGI (SK-OV-3 ovarian): 79.8 µM
GI50 (SN12C renal): 2.3 µM
TGI (SN12C renal): 8.89 µM
GI50 (SNB-19 CNS): 12.9 µM
TGI (SNB-19 CNS): 69.2 µM
GI50 (SR leukemia): 0.443 µM
TGI (SR leukemia): 3.01 µM
GI50 (SW-620 colon): 17 µM
TGI (SW-620 colon): > 100 µM
GI50 (T-47D breast): 18.5 µM
TGI (T-47D breast): > 100 µM
GI50 (TK-10 renal): 15.1 µM
TGI (TK-10 renal): > 100 µM
GI50 (U251 CNS): 3.69 µM
TGI (U251 CNS): 19.4 µM
GI50 (UACC-257 melanoma): 20.3 µM
TGI (UACC-257 melanoma): > 100 µM
GI50 (UACC-62 melanoma): 11.4 µM
TGI (UACC-62 melanoma): 28.1 µM
GI50 (UO-31 renal): 79.5 µM
TGI (UO-31 renal): > 100 µM

N=C(N)c1ccc(-c2ccc(-c3ccccc3)s2)s1
GI50 (A498 renal): < 0.01 µM
TGI (A498 renal): 1.34 µM
GI50 (BT-549 breast): 0.0267 µM
TGI (BT-549 breast): 2 µM
GI50 (DU-145 prostate): < 0.01 µM
TGI (DU-145 prostate): 1.1 µM
GI50 (HCC-2998 colon): 1.05 µM
TGI (HCC-2998 colon): 2.36 µM
GI50 (HL-60(TB) leukemia): 0.0287 µM
TGI (HL-60(TB) leukemia): 1.43 µM
GI50 (HOP-92 NSCLC): 0.0655 µM
TGI (HOP-92 NSCLC): 2.17 µM
GI50 (M14 melanoma): < 0.01 µM
TGI (M14 melanoma): 0.0155 µM
GI50 (MALME-3M melanoma): 1.17 µM
TGI (MALME-3M melanoma): 2.59 µM
GI50 (MDA-MB-231 breast): 0.753 µM
TGI (MDA-MB-231 breast): 2.5 µM
GI50 (NCI-H23 lung): < 0.01 µM
TGI (NCI-H23 lung): 1.37 µM
GI50 (OVCAR-5 ovarian): 0.374 µM
TGI (OVCAR-5 ovarian): 2.45 µM
GI50 (PC-3 prostate): 0.249 µM
TGI (PC-3 prostate): 2.03 µM
GI50 (SF-295 CNS): 0.0321 µM
TGI (SF-295 CNS): 0.273 µM
GI50 (SK-MEL-2 melanoma): 1.76 µM
TGI (SK-MEL-2 melanoma): 3.38 µM
GI50 (SN12C renal): 0.156 µM
TGI (SN12C renal): 1.95 µM
GI50 (UACC-257 melanoma): 0.156 µM
TGI (UACC-257 melanoma): 2.31 µM
GI50 (UACC-62 melanoma): 0.0156 µM
TGI (UACC-62 melanoma): 1.3 µM
